Laboratory results taken from EP0104572A1, “Benzyl ethers of phenol Mannich bases, process for their production, their use and pharmaceutical preparations based on these compounds, intermediates and process for their production” (priority 1982, dated 1984).
Like-named read-outs stand apart in the source and are kept apart here.

Key:
[1] = tested on: Serum-Lipoproteine; test: Change of serum and lipoprotein-fraction cholesterol in rats after 7 days of oral treatment (ultracentrifuge fractionation, CHOD-PAP cholesterol); type: in vivo, männlichen Wistar-Ratten; conditions: Rattus norvegicus, 168 h, oral (gavage), 7 days, male Wistar rats; for change in vivo at 3 mg/kg: 3 mg/kg / Tag; for change in vivo at 10 mg/kg: 10 mg/kg / Tag; for change in vivo at 30 mg/kg: 30 mg/kg / Tag; for change in vivo at 1 mg/kg: 1 mg/kg / Tag; for change in vivo at 20 mg/kg: 20 mg/kg / Tag
From the text: (§1) Die Wirkung der angeführten Verbindungen auf die Serum- Lipoproteine wurde an männlichen Wistar-Ratten untersucht, die 7 Tage per Schlundsonde mit den angeführten in Polyäthylenglykol 400 suspendierten Verbindungen behandelt wurden. Außerdem wurde eine Kontrollgruppe, die nur das Lösungsmittel Polyäthylenglykol 400 erhielt, mitgeführt, sowie bei den meisten Versuchen eine Ratten-Gruppe mit dem Standardhypolipidämikum Clofibrat. Pro Gruppe wurden in der Regel 10 Tiere eingesetzt, denen am Ende der Behandlung das Blut nach leichter Äthernarkose aus dem Orbitalplexus entnommen wurde. Aus dem gewonnenen Ratten-Serum wurden die Serum- Lipoproteine in der präparativen Ultrazentrifuge in folgende Dichteklassen getrennt: VLDL < 1,006; LDL 1,006 bis 1,04; HDL 1,04 bis 1,21
Da nämlich im Gegensatz zum Menschen die Serumlipoproteine der Ratte etwa 4/5 HDL-Cholesterin und nur 1/5 LDL-Cholesterin enthalten und nur sehr geringe Mengen von VLDL (beim Menschen umgekehrt etwa 2/3 LDL und VLDL und nur 1/3 bis 1/4 HDL), macht die Beurteilung einer hypolipidämischen Wir- .kung an der Ratte unbedingt eine Fraktionierung des Ratten-serums in Lipoproteinklassen erforderlich. Eine bloße Erniedrigung des Serum-Total-cholesteringehaltes an der Ratte würde nämlich nur die unerwünschte Erniedrigung der bei der Ratte vorwiegenden antiatherogenen HDL-Klasse anzeigen. Eine erwünschte Erniedrigung von LDL bei gleichzeitiger erwünschter Vermehrung von HDL hätte aber keine (wesentliche) Auswirkung auf den Totalcholesteringehalt des Ratten-Serums.
Aus den in der Ultrazentrifuge isolierten LipoproteinFraktionen wurde das darin enthaltene Cholesterin vollenzymatisch nach der CHOD-PAP-Methode mittels der Testkombination von Boehringer-Mannheim bestimmt und die Werte in µg/ml Serum umgerechnet. In der angeführten Tabelle ist die Veränderung des Lipoprotein-Cholesterins in der behandelten Gruppe gegenüber einer unter gleichen Bedingungen mitgeführten Kontrollgruppe angegeben.
Veränderung in % der Lipoproteine im Ratten-Serum nach siebentägiger oraler Applikation der Verbindungen

[2] = Change of relative liver weight and liver findings in the 7-day oral rat study; type: in vivo, männlichen Wistar-Ratten; conditions: for % Veränderung des relativen Lebergewichtes: oral (gavage), 7 days, male Wistar rats
From the text: Die erfindungsgemäßen Verbindungen haben wertvolle therapeutische Eigenschaften. So erniedrigen sie vor allem die Konzentration von LDL und VLDL, die HDL-Fraktion aber kaum, in vielen Fällen wird diese Fraktion sogar vermehrt. Diese Verbindungen stellen daher einen wesentlichen Fortschritt gegenüber der Vergleichsverbindung Clofibrat dar, wie aus .den nachfolgend beschriebenen Daten ersichtlich ist. Sie können daher zur Prophylaxe und Regression von arteriosklerotischen Veränderungen herangezogen werden, indem sie einen kausalen Risikofaktor ausschalten. Hierzu zählen nicht nur die primären Hyperlidämien, sondern auch gewisse sekundäre Hyperlipidämien wie sie z.B. beim Diabetes vorkommen. […] Die mit einer hypolipidämischen Wirkung verbundene unerwünschte Beeinflussung der Leber zeigt sich auch in sehr starkem Maße bei der in J.Med.Chem. 18 (1975) S. 833-836 beschriebenen Vergleichsverbindung 1-(4-Methylbenzyl)-imidazol. […] Die erfindungsgemäßen Verbindungen zeigen dieses unerwünschte Verhalten nicht.
as §1

[3] = read-out: Cholesterolveränderung in %, bezogen auf die Kontrollgruppe im Serum
[4] = read-out: Cholesterolveränderung in %, bezogen auf die Kontrollgruppe in den Serum-Lipoprotein-Fraktionen HDL
[5] = read-out: Cholesterolveränderung in %, bezogen auf die Kontrollgruppe in den Serum-Lipoprotein-Fraktionen LDL
[6] = read-out: Cholesterolveränderung in %, bezogen auf die Kontrollgruppe in den Serum-Lipoprotein-Fraktionen VLDL

## Cc1ccc(Cn2ccnc2)cc1 [1-(4-Methyl-benyl)-imidazol, 1-(4-Methylbenzyl)-imidazol, reference compound]
[1]; [3]
  change in vivo at 3 mg/kg: 11%
  change in vivo at 10 mg/kg: 16%
  change in vivo at 30 mg/kg: -44%
[1]; [4]
  change in vivo at 3 mg/kg: 18%
  change in vivo at 10 mg/kg: 22%
  change in vivo at 30 mg/kg: -24%
[1]; [5]
  change in vivo at 3 mg/kg: -5%
  change in vivo at 10 mg/kg: -3%
  change in vivo at 30 mg/kg: -90%
[1]; [6]
  change in vivo at 3 mg/kg: 10%
  change in vivo at 10 mg/kg: -23%
  change in vivo at 30 mg/kg: -100%
[2]; rat, in vivo
  unerwünschte Beeinflussung der Leber: massive Hepatomegalie mit massiven Neutralfett- und Cholesterineinlagerungen

## Cc1cc(Cn2ccnc2)cc(Cl)c1OCc1ccc(C(=O)C(C)(C)C)cc1 [Beispiel 1, 4-[2-Chlor-4-(-imidazol-1-ylmethyl)-6-methylphenoxymethyl]-phenyl-tert.-butyl-keton]
[1]; [4]
  change in vivo at 1 mg/kg: 8%
  change in vivo at 3 mg/kg: 3%
  change in vivo at 10 mg/kg: -5%
[1]; [5]
  change in vivo at 1 mg/kg: -40%
  change in vivo at 3 mg/kg: -42%
  change in vivo at 10 mg/kg: -52%
[1]; [6]
  change in vivo at 1 mg/kg: 0%
  change in vivo at 3 mg/kg: 0%
  change in vivo at 10 mg/kg: 0%
[1]; [3]
  change in vivo at 3 mg/kg: -12%
  change in vivo at 10 mg/kg: -17%
[2]; 1 mg/kg / Tag
  % Veränderung des relativen Lebergewichtes: +4%
[2]; 3 mg/kg / Tag
  % Veränderung des relativen Lebergewichtes: +9%

## C=CCc1cc(Cn2ccnc2)cc(C)c1OCc1ccc(C(=O)C(C)(C)C)cc1 [Beispiel 1.2]
[1]; [4]
  change in vivo at 30 mg/kg: 9%
[1]; [5]
  change in vivo at 30 mg/kg: -39%
[1]; [6]
  change in vivo at 30 mg/kg: -31%

## CC(C)(C)C(=O)c1ccc(COc2c(Cl)cc(Cn3ccnc3)cc2Cl)cc1 [Beispiel 1.6]
[1]; [4]
  change in vivo at 10 mg/kg: 7%
[1]; [5]
  change in vivo at 10 mg/kg: -32%

## C=CCc1cc(Cn2ccnc2)cc(Cl)c1OCc1ccc(C(=O)C(C)(C)C)cc1 [Beispiel 1.7]
[1]; [3]
  change in vivo at 20 mg/kg: -18%
[1]; [4]
  change in vivo at 20 mg/kg: -7%
[1]; [5]
  change in vivo at 20 mg/kg: -43%

## COc1cc(Cn2ccnc2)cc(OC)c1OCc1ccc(C(=O)C(C)(C)C)cc1 [Beispiel 1.8]
[1]; [3]
  change in vivo at 20 mg/kg: -19%
[1]; [4]
  change in vivo at 20 mg/kg: -4%
[1]; [5]
  change in vivo at 20 mg/kg: -43%
[1]; [6]
  change in vivo at 20 mg/kg: -19%

## Cc1cc(Cn2ccnc2)cc(C)c1OCc1ccc(C(=O)C(C)(C)CCl)cc1 [Beispiel 1.16]
[1]; [4]
  change in vivo at 3 mg/kg: -11%
  change in vivo at 10 mg/kg: -1%
[1]; [5]
  change in vivo at 3 mg/kg: -32%
  change in vivo at 10 mg/kg: -52%
[1]; [6]
  change in vivo at 3 mg/kg: -32%
  change in vivo at 10 mg/kg: -24%
[1]; [3]
  change in vivo at 10 mg/kg: -15%

## Cc1cc(Cn2cncn2)cc(Cl)c1OCc1ccc(C(=O)C(C)(C)C)cc1 [Beispiel 1.19]
[1]; [3]
  change in vivo at 10 mg/kg: -11%
[1]; [5]
  change in vivo at 10 mg/kg: -29%
[1]; [6]
  change in vivo at 10 mg/kg: -35%

## Cc1cc(Cn2cccn2)cc(C)c1OCc1ccc(C(=O)C(C)(C)C)cc1 [Beispiel 1.21]
[1]; [3]
  change in vivo at 30 mg/kg: 0%
[1]; [5]
  change in vivo at 30 mg/kg: -35%
[1]; [6]
  change in vivo at 30 mg/kg: -62%

## Cc1cc(Cn2ccnc2)cc(C)c1OCc1ccc(C(=O)c2ccc(Cl)cc2)cc1 [Beispiel 1.46]
[1]; [5]
  change in vivo at 10 mg/kg: -35%
[1]; [6]
  change in vivo at 10 mg/kg: -29%

## Cc1cc(Cn2ccnc2)cc(C)c1OCc1ccc(C2(C(C)(C)C)OCCO2)cc1 [Beispiel 1.52]
[1]; [5]
  change in vivo at 30 mg/kg: -23%
[1]; [6]
  change in vivo at 30 mg/kg: -36%

## Cc1cc(Cn2ccnc2)cc(C)c1OCc1ccc(C(O)C(C)(C)C)cc1 (stereo not shown) [Beispiel 2.1]
[1]; [4]
  change in vivo at 1 mg/kg: 17%
[1]; [5]
  change in vivo at 1 mg/kg: -53%
  change in vivo at 10 mg/kg: -66%
[1]; [6]
  change in vivo at 1 mg/kg: 17%
  change in vivo at 10 mg/kg: -54%
[1]; [3]
  change in vivo at 10 mg/kg: -22%
[2]; 1 mg/kg / Tag
  % Veränderung des relativen Lebergewichtes: +11%

## C=CCc1cc(Cn2ccnc2)cc(C)c1OCc1ccc(C(O)C(C)(C)C)cc1 (stereo not shown) [Beispiel 2.2]
[1]; [4]
  change in vivo at 30 mg/kg: 14%
[1]; [5]
  change in vivo at 30 mg/kg: -49%
[1]; [6]
  change in vivo at 30 mg/kg: -34%

## CC(C)c1cc(Cn2ccnc2)cc(C(C)C)c1OCc1ccc(C(O)C(C)(C)C)cc1 (stereo not shown) [Beispiel 2.4]
[1]; [3]
  change in vivo at 30 mg/kg: -12%
[1]; [5]
  change in vivo at 30 mg/kg: -38%
[1]; [6]
  change in vivo at 30 mg/kg: -50%

## Cc1cc(Cn2ccnc2)cc(C)c1OCc1ccc(C(=O)C(C)(C)C)cc1 [Beispiel 3, 4-[2,6-Dimethyl-4-(imidazol-1-ylmethyl)-phenoxymethyl]-phenyl-tert.-butyl-keton]
[1]; [4]
  change in vivo at 1 mg/kg: 5%
  change in vivo at 3 mg/kg: 2%
  change in vivo at 10 mg/kg: 2%
[1]; [5]
  change in vivo at 1 mg/kg: -33%
  change in vivo at 3 mg/kg: -36%
  change in vivo at 10 mg/kg: -45%
[1]; [6]
  change in vivo at 1 mg/kg: 30%
  change in vivo at 3 mg/kg: 17%
  change in vivo at 10 mg/kg: -58%
[2]; 1 mg/kg / Tag
  % Veränderung des relativen Lebergewichtes: -2%
[2]; 3 mg/kg / Tag
  % Veränderung des relativen Lebergewichtes: -4%

## Cc1cc(Cn2ccnc2)cc(Cl)c1OCc1ccc(C(O)C(C)(C)C)cc1 (stereo not drawn) [Beispiel 5, α-Tert.-butyl-4-[2-Chlon-6-methyl-4-(imidazol-1-ylmekthyl)-phenoxymethyl]-benzylalkohol]
[1]; [5]
  change in vivo at 1 mg/kg: -39%
  change in vivo at 3 mg/kg: -47%
  change in vivo at 10 mg/kg: -59%
[1]; [6]
  change in vivo at 1 mg/kg: -13%
  change in vivo at 3 mg/kg: -10%
  change in vivo at 10 mg/kg: -46%
[1]; [4]
  change in vivo at 3 mg/kg: 18%
[1]; [3]
  change in vivo at 10 mg/kg: -23%
[2]; 3 mg/kg / Tag
  % Veränderung des relativen Lebergewichtes: +13%
